According to patent US11464720B2, “TRPA1 activity inhibitor” (MANDOM CORPORATION, priority 2017, dated 2022):

Experiments:
human TRPA1 = target: T1, human TRPA1 (Homo sapiens, UniProt O75762); assay: Test Example 1: TRPA1 activity-inhibition ratio, intracellular calcium (Fura 2-AM) in TRPA1-expressing HEK293 cells stimulated with menthol; assay type: cell-based; settings: mixed with agonist 1 mM menthol
T1 construct: expressed in transfected cells; host or cells: HEK293 cells, transient lipofection of pcDNA3.1(+) human TRPA1-expression vector
T1 sequence (O75762 whole entry): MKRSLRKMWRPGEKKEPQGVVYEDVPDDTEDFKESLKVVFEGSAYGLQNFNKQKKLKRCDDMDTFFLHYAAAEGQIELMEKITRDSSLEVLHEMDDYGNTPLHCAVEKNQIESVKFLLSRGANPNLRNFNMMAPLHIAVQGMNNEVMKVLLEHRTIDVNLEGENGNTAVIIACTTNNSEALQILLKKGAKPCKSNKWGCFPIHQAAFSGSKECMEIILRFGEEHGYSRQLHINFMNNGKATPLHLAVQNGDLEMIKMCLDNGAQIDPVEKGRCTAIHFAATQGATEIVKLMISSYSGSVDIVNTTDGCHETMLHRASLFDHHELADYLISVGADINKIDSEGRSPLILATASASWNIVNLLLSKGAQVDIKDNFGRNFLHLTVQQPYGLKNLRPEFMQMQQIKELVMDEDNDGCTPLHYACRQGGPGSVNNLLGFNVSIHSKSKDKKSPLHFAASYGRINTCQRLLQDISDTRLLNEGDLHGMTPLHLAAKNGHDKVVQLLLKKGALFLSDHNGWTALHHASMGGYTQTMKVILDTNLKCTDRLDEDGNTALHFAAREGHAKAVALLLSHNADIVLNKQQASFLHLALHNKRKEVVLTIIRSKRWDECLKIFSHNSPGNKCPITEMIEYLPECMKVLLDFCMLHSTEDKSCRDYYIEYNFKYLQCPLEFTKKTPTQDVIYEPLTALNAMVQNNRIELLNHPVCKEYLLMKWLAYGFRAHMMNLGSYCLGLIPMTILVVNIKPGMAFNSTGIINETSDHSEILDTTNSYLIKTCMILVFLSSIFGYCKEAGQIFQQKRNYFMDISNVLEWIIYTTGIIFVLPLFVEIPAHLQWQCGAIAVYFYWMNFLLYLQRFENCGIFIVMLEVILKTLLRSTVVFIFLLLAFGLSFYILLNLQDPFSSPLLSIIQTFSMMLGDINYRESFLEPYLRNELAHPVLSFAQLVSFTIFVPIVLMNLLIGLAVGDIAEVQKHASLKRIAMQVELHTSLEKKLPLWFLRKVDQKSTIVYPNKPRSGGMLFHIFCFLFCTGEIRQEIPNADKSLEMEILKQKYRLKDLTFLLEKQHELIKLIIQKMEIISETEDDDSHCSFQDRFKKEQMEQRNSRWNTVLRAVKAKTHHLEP
Description: A cDNA encoding human TRPA1 [a polynucleotide of position 63 to position 3888 of the nucleotide sequence shown in SEQ ID NO: 1 (GenBank Accession No.: NM_007332)] was inserted into a cloning site of a vector for mammalian cells [manufactured by Invitrogen under the trade name of pcDNA3.1(+)], to obtain a human TRPA1-expression vector. One microgram of the resulting human TRPA1-expression vector was mixed with 6 μL of a gene transfer reagent [manufactured by Invitrogen under the trade name of PLUS Reagent, Catalogue No.: 11514-015], to obtain a mixture I. Additionally, 4 μL of a cationic lipid for gene transfer [manufactured by Invitrogen under the trade name of Lipofectamine (registered trademark), Catalogue No.: 18324-012] was mixed with 200 μL of a medium for reducing serum consumption [Manufactured by Invitrogen under the trade name of Opti-MEM (registered trademark) I Reduced Serum Medium (catalogue No.: 11058021)], to obtain a mixture II.
Furthermore, 5×10^5 cells of HEK293 cells were cultured in a 10% by mass fetal bovine serum (FBS)-containing Dulbecco's modified Eagle's medium (DMEM) on a dish having a diameter of 35 mm maintained at 37° C. under 5% by volume carbon dioxide atmosphere to 70% confluence.
By adding the mixture I and the mixture II to the resulting cell culture, the human TRPA1-expression vector was introduced into HEK293 cells, to obtain TRPA1-expressing cells. […]
Thereafter, intensity of fluorescence A based on the Fura 2-AM introduced into the TRPA1-expressing cell and bound to a calcium ion in the cells at an excitation wavelength of 340 nm in the chamber and intensity of fluorescence B based on the Fura 2-AM introduced into the TRAP1-expressing cell at an excitation wavelength of 380 nm were measured.
Using the measured intensity of fluorescence A and B, Δfluorescence intensity ratioagonist was calculated. The Δfluorescence intensity ratioagonist was calculated on the basis of the formula (IV): [Formula 1] ΔFluorescence intensity ratioagonist=(Fluorescence intensity340 nm in the presence of an agonist/Fluorescence intensity 380 nm in the presence of an agonist)−(Fluorescence intensity340 nm in the presence of a control/Fluorescence intensity380 nm in the presence of a control) (IV).
In the formula (IV), the intensity of fluorescence A was used as fluorescence intensity340 nm, and the intensity of fluorescence B was used as fluorescence intensity380 nm. […]

human TRPM8 = target: T2, human TRPM8 (Homo sapiens, UniProt Q7Z2W7); assay: Test Example 2: enhancement degree of TRPM8 activity, intracellular calcium (Fura 2-AM) in TRPM8-expressing HEK293 cells; assay type: cell-based; settings: test sample 0.5 mM, ratio to TRPM8 activity enhanced by agonist 1 mM menthol, FIG. 2
T2 construct: expressed in transfected cells; host or cells: HEK293 cells, transient lipofection of pcDNA3.1(+) human TRPM8-expression vector
T2 sequence (Q7Z2W7 whole entry): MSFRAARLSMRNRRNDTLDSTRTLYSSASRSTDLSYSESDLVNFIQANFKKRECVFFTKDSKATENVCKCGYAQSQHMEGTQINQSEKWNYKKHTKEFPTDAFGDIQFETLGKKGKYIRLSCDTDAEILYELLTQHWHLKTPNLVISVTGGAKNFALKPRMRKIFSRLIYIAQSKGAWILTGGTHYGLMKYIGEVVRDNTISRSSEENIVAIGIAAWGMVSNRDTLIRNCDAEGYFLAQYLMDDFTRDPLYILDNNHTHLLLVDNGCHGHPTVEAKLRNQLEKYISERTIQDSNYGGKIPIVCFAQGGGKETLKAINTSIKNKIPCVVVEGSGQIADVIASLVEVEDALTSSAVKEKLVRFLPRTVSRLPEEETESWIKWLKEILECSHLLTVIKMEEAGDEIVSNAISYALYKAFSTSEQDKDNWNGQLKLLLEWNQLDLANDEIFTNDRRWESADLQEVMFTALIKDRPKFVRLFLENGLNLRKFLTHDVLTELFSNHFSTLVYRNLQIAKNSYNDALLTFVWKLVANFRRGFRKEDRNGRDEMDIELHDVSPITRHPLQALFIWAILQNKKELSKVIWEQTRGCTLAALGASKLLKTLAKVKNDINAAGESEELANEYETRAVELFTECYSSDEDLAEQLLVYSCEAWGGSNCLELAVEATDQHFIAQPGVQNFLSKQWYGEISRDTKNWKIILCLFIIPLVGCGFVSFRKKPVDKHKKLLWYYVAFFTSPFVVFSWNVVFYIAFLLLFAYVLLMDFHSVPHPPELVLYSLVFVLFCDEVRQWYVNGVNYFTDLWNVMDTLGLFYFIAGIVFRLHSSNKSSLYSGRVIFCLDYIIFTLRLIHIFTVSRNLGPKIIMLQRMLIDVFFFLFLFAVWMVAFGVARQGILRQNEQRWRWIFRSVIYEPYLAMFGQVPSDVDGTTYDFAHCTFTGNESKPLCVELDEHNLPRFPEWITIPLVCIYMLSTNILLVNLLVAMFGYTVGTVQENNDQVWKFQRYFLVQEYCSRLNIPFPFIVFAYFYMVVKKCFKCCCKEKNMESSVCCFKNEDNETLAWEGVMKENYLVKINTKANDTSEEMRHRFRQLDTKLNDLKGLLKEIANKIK
Description: A cDNA encoding human TRPM8 [a polynucleotide of position 41 to position 3355 of the nucleotide sequence shown in SEQ ID NO: 3 (GenBank Accession No.: NM_024080)] was inserted into a cloning site of a vector for mammalian cells [manufactured by Invitrogen under the trade name of pcDNA3.1(+)], to obtain a human TRPM8-expression vector. One microgram of the resulting human TRPM8-expression vector was mixed with 6 μL of a gene transfer reagent [manufactured by Invitrogen under the trade name of PLUS Reagent, Catalogue No.: 11514-015], to obtain a mixture III. […]
Thereafter, intensity of fluorescence E based on the Fura 2-AM introduced into the TRPM8-expressing cell and bound to a calcium ion in the cells at an excitation wavelength of 340 nm and intensity of fluorescence F based on the Fura 2-AM introduced into the TRAM8-expressing cell at an excitation wavelength of 380 nm were measured in the chamber.
Using the measured intensity of fluorescence E and F, Δfluorescence intensity ratiotest sample was calculated on the basis of the formula (V). In the formula (V), the intensity of fluorescence E was used as fluorescence intensity340 nm, and the intensity of fluorescence F was used as fluorescence intensity380 nm. […]

[1] = test sample 1 mM in solvent A, FIG. 1

Row | TRPA1 activity-inhibition ratio (human TRPA1; [1]) | TRPA1 activity-inhibition ratio (human TRPA1; test sample 5 mM glycerol in solvent A, FIG. 1 lane 4) [%] | Enhancement degree of TRPM8 activity (human TRPM8) | Compound
1 | about 71% |  |  | CC12CCC(CC1)C(C)(C)O2 [Reference Example 2, 1,8-cineole]
2 |  | ≤ 0 |  | OCC(O)CO [Comparative Example 1, Glycerol]
3 | about 96% |  | about 0.35 | CC1(C)C2CCC1(C)C(O)C2 (stereo not drawn) [Reference Example 1, Borneol]
4 | about 99% |  | about 0.69 | CC1(C)C2CCC1(C)C(OCCO)C2 (stereo not drawn) [Example 1, 2-isobornyloxyethanol]
